Patent publication US7888319B2, “Compositions and methods for promoting wound healing and tissue regeneration” (MUSC Foundation for Research Development, priority 2004, dated 2011)
Ends that are not written are not given here.

What was measured:
[1] = test system: 4 mm long incisional skin injury; assay: Incisional skin injury in neonatal mouse; type: in vivo
Description: Neonatal mouse pups were desensitized using hypothermia. A 4 mm long incisional skin injury was made using a scalpel through the entire thickness of the skin (down to the level of the underlying muscle) in the dorsal mid line between the shoulder blades. 30 μl of a solution of 20% pluronic (F-127) gel containing either no (control) or dissolved ACT 1 peptide (SEQ ID NO: 2) at a concentration of 60 μM was then applied to the incisional injuries. Control or ACT peptide containing gel was applied subsequently 24 hours after the initial application. No further application of control and ACT peptide containing gel was made after the second application. […] These differences in inflammation, swelling and healing between the control and ACT peptide and control treated injury persisted at the 72 (c, d) and 96 (e, f) hour time points. […] Note that images of the same injury on the same animal are shown at the different time points during the healing time course. Neonatal mouse pups were desensitized using hypothermia. A 4 mm long incisional skin injury was made using a scalpel through the entire thickness of the skin (down to the level of the underlying muscle) in the dorsal mid line between the shoulder blades. 30 μl of a solution of 20% pluronic (F-127) gel containing either no (control) or dissolved ACT 1 peptide (SEQ ID NO:2) at a concentration of 60 μM was then applied to the incisional injuries. Pluronic gel has mild surfactant properties that may aid in the uniform dispersion of the ACT peptide in micelles. More importantly, 20% pluronic gel stays liquid at temperatures below 15° C., but polymerizes at body temperature (37° C.). This property of pluronic gel probably aided in the controlled release of peptide into the tissue at the site of incisional injury, protecting the peptide from break-down in the protease-rich environment of the wound and also enabling active concentrations of the peptide to maintained over prolonged periods. Control or ACT peptide containing gel was applied subsequently 24 hours after the initial application. […]

NIH-3T3 cells = assay: In vitro scratch injury of NIH-3T3 monolayer (repopulation, PCNA immunolabeling); type: cell-based; details: 30 μM
Description: An NIH-3T3 monolayer was pre-treated with ACT 1 peptide (SEQ ID NO:2) for 24 hrs, and “scratch-injured” with a p200 pipette tip. The “scratch injury” was subsequently allowed to “heal” for 24 hours in the presence of (a, b) 30 μM ACT 1 peptide (SEQ ID NO:2), (c, d) 30 μM non-active control peptide (SEQ ID NO: 55), or (e, f) vehicle control solution containing no ACT peptide or control peptide. […] The repopulation of the “scratch injury” occurs in part via migration of the transformed cells crawling into the “scratch injury” area. Figures (b), (d) and (f) show proliferating cell nuclear antigen (PCNA) immunolabeling of cells in the “scratch injury” or at the injury edge.
NIH-3T3 fibroblasts were “scratch injured” and subject to the continuous presence of 30 μM ACT 1 peptide (SEQ ID NO:2) for 24 hours or the control conditions as outlined in FIG. 2. […] The cells have been labeled with fluorescent phalloidin to aid visualization. ACT peptide-treated cells show low levels of repopulation of the scratch injury area (white double headed arrows).
NIH-3T3 cells were grown over 2-3 days until forming a near-confluent monolayer on a tissue culture dish according to standard protocols and the monolayer was then pre-treated with ACT 1 peptide (SEQ ID NO:2) for 24 hrs, and “scratch-injured” with a p200 pipette tip. The “scratch injury” was subsequently allowed to repopulate for 24 hours in the presence of 30 μM ACT 1 peptide (SEQ ID NO:2) dissolved in the culture media (FIG. 2a, b) or in presence of two control conditions (FIG. 2c-f). In the first control condition, the “scratch-injured” cells were allowed to repopulate for 24 hours in the presence of a non-active control peptide (as in FIG. 1) dissolved in the culture media at a concentration of 30 μM (FIG. 2c, d). In the second control condition, phosphate buffered saline (PBS) was added to the culture media and the “scratch-injured” cells were allowed to repopulate in the presence of this vehicle control solution containing no ACT peptide or control peptide (FIG. 2e, f). […] The repopulation of the “scratch injury” occurs in part via migration of the transformed cells crawling into the “scratch injury” area. Figures (FIGS. 2b, d, and f) show proliferating cell nuclear antigen (PCNA) immunolabeling of cells in the “scratch injury” or at the injury edge.
The cells were labeled with fluorescent phalloidin to aid visualization. ACT peptide-treated cells show low levels of repopulation of the scratch injury area (white double headed arrows).

[2] = test system: Cx43 gap junction formation; assay: Cx43 gap junction formation in cultured neonatal myocytes; type: cell-based, rat; details: 30 μM peptide, 5 days in culture, relative to non-active control peptide and PBS
Description: Myocytes from neonatal rat hearts were grown until forming a near-confluent monolayer on a tissue culture dish according to standard protocols. The cultures were subsequently allowed to culture for a further 5 days in culture medium comprising (a) 30 μM ACT 1 peptide (SEQ ID NO:2), (b) 30 μM non-active control peptide (SEQ ID NO:55), or (c) phosphate buffered saline (PBS) containing no ACT peptide or control. Culture media with added peptides or vehicle control was changed every 24 hours during the experiment. […] This increase in Cx43 gap junction formation in response to ACT peptide is shared by a number of cell types expressing Cx43.
Myocytes from neonatal rat hearts were grown until forming a near-confluent monolayer on a tissue culture dish according to standard protocols. The cultures were subsequently allowed to culture for a further 5 days culture medium comprising 30 μM ACT 1 peptide (SEQ ID NO:2), 30 μM non-active control peptide (SEQ ID NO:55), or phosphate buffered saline (PBS) containing no ACT peptide or control peptide. The non-active control peptide comprises a polypeptide with a carboxy terminus in which the ACT peptide sequence has been reversed. […]

## RPRPDDLEI (not fully specified (N-terminus)) [ACT 1, carboxy-terminal 9 amino acids of human Cx43; amino terminus biotinylated in tests]
[1]; 60 μM in 20% pluronic (F-127) gel, 30 μl, applied at 0 and 24 hours, by 48 hours, vs gel without peptide
  appearance of injury (closure, inflammation, swelling, healing): significantly more closed, less inflamed, less swollen
[1]; 60 μM in 20% pluronic gel, 72 and 96 hour time points
  differences in inflammation, swelling and healing versus control: persisted
[1]; 60 μM in 20% pluronic gel, at 7 days
  scar appearance of wound: smoother and less scarred appearance
NIH-3T3 cells; 24 hours after scratch
  proliferating cell nuclear antigen (PCNA) immunolabeling of cells in the scratch injury or at the injury edge: only low luminosity consistent with background and non-proliferation
NIH-3T3 cells; 24 hours, vs control conditions, p<0.000001
  % area of cells repopulating the scratch injury after 24 hours: reduction of cells in the injury area in the presence of ACT peptide is dramatic
[2]
  extent of Cx43 gap junction formation between myocytes: greatly increased
